# Assay results reported in PMC10698238 (Planta medica, 2023).
# “Also recorded” adds a separate entry of the source. Like-named read-outs stand apart in the source and are kept apart here. Marks after values point to notes of the source that are not given here.
# Experiments:
# Phyllosticta citricarpa [1] = assay: Inhibition of Phyllosticta citricarpa pycnidia development in citrus leaves; format: cell-based; details: 21 days; for Decrease of the number of pycnidia produced by P. citricarpa in citrus leaves: 10 mg/mL
# Phyllosticta citricarpa [2] = assay: Mycelial growth inhibition assay in petri dishes; format: cell-based; details: 21 days; for Inhibition of mycelial growth of P. citricarpa: petri dishes, 10 mg/mL
# Phyllosticta citricarpa [3] = assay: Inhibition of citrus black spot development in detached citrus fruits; format: in vivo; details: 21 days; for Inhibition of CBS symptoms in citrus fruits: 10 mg/mL
# [4] = system: PC3 (prostate cancer) cell line; assay: Cytotoxicity assay; details: read-out: IC50 PC3
# [5] = system: A549 (non-small cell lung cancer) cell line; assay: Cytotoxicity assay; details: read-out: IC50 A549
# HCT-116 = details: cited from earlier work
# [6] = detached C. sinensis fruits, 10 μL of 10 mg/mL solution in methanol
Molecule,Decrease of the number of pycnidia produced by P. citricarpa in citrus leaves (Phyllosticta citricarpa [1]),Development of citrus black spot (CBS) symptoms (Phyllosticta citricarpa [3]; [6]),"IC50 ([4]; Homo sapiens, 72 h) [µM]","IC50 ([5]; Homo sapiens, A549, 72 h) [µM]",IC50 ([4]; 72 h incubation) [µM],IC50 ([5]; 72 h incubation) [µM],other results
"Cc1cc(O)c2c(=O)c3c(C(=O)O)cccc3oc2c1 [8a, 8-hydroxy-6-methyl-9-oxo-9H-xanthene-1-carboxylic acid]",less than 14%,,,,,,
"Cc1cc(C(=O)O)c2c(=O)c3c(O)cccc3oc2c1 [8b, 8-hydroxy-3-methyl-9-oxo-9H-xanthene-1-carboxylic acid]",less than 14%,,,,,,
"COC(=O)Nc1nc2ccccc2[nH]1 [Carbendazim, carbendazim, reference compound]",,,,,,,"Growth [in cm mean (± SD)] of Phyllosticta citricarpa in petri dishes (Phyllosticta citricarpa [2]; positive control, carbendazim 1.0 mg/mL): 0 ^* cm; Number of pycnidia produced in leaves by P. citricarpa (Phyllosticta citricarpa [1]; positive control): 0; Development of citrus black spot (CBS) symptoms (Phyllosticta citricarpa [3]; positive control, 50 μg carbendazim, detached fruits): −"
"CC(=O)OC[C@]12Oc3c(-c4ccc(O)c5c4O[C@@]4(COC(C)=O)C(=C(O)C[C@@H](C)[C@H]4OC(C)=O)C5=O)ccc(O)c3C(=O)C1=C(O)C[C@@H](C)[C@H]2OC(C)=O [compound 3, phomoxanthone A]",70.2%,−,3.18 ± 0.02,4.95 ± 0.53,,,Inhibition of CBS symptoms in citrus fruits (Phyllosticta citricarpa [3]; detached fruits): inhibited the development of citrus black spot symptoms; also recorded: completely inhibited CBS symptoms; also recorded: suppressed the hyphal growth and development of CBS lesions
"CC(=O)OC[C@]12Oc3ccc(-c4ccc(O)c5c4O[C@@]4(COC(C)=O)C(=C(O)C[C@@H](C)[C@H]4OC(C)=O)C5=O)c(O)c3C(=O)C1=C(O)C[C@@H](C)[C@H]2OC(C)=O [compound 4, phomoxanthone B]",63.1%,+,7.39 ± 0.62,10.4 ± 0.59,,,
"CC(=O)OC[C@]12Oc3ccc(-c4ccc5c(c4O)C(=O)C4=C(O)C[C@@H](C)[C@@H](OC(C)=O)[C@@]4(COC(C)=O)O5)c(O)c3C(=O)C1=C(O)C[C@@H](C)[C@H]2OC(C)=O [compound 5, dicerandrol C]",less than 14%,+,2.23 ± 0.13,2.92 ± 0.24,,,
"C=C1[C@@H](C)[C@H]2[C@H](Cc3ccccc3)NC(=O)[C@]23[C@H](OC(C)=O)/C=C/[C@](C)(O)C[C@@H](C)C/C=C/[C@H]3[C@@H]1O [compound 6, cytochalasin H]",78.3%,−,,,> 50,> 50,Inhibition of mycelial growth of P. citricarpa (Phyllosticta citricarpa [2]): 80%; Inhibition of CBS symptoms in citrus fruits (Phyllosticta citricarpa [3]; detached fruits): inhibited the development of citrus black spot symptoms; also recorded: completely inhibited CBS symptoms; also recorded: suppressed the hyphal growth and development of CBS lesions
"C=C1[C@@H](C)[C@H]2[C@H](Cc3ccccc3)NC(=O)[C@]23[C@H](O)/C=C/[C@](C)(O)C[C@@H](C)C/C=C/[C@H]3[C@@H]1O [compound 7, cytochalasin J]",less than 14%,+,,,> 80,> 80,
"CCCCCCCc1cc(=O)c2c(CC(=O)OC)cc(O)cc2o1 [compound 9, 5-carbomethoxymethyl-2-heptyl-7-hydroxychromone]",no activity,+,> 80,> 80,,,
"Cc1occc(=O)c1O [compound 10, maltol]",less than 14%,+,> 80,> 80,,,
COc1cc2c(cc1OC)[C@]1(O)C(=O)c3ccc4c(c3O[C@@H]1CO2)C=CC(C)(C)O4 [tephrosin],,,,,,,Activity against colorectal cancer cell line HCT-116 (HCT-116): showed activity
paecilin Q [compound 1],50.5%,+,,,> 80,> 80,Inhibition of mycelial growth of P. citricarpa (Phyllosticta citricarpa [2]): 48.6%
paecilin R [compound 2],35.5%,+,,,> 80,> 80,
